The values that follow come from patent US20090099195A1 (ASTRAZENECA AB, priority 2007, published 2009).

For assay [1], the target named is T1, rat P2X2/3 (rat P2X3 co-expressed with rat P2X2) (Rattus norvegicus, UniProt P49653+P49654).
T1 sequence (P49654 1-397): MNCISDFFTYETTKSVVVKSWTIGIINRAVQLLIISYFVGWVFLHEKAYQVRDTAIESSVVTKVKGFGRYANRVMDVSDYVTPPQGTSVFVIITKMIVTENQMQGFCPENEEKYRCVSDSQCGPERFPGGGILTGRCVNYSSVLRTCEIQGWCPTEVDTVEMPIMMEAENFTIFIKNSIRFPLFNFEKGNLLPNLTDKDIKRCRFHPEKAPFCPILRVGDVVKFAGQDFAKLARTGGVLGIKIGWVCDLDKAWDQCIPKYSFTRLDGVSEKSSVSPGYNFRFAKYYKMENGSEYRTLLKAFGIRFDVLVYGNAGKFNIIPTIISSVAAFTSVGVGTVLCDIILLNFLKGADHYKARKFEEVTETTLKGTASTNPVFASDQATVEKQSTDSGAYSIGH
T1 sequence (P49653 1-472): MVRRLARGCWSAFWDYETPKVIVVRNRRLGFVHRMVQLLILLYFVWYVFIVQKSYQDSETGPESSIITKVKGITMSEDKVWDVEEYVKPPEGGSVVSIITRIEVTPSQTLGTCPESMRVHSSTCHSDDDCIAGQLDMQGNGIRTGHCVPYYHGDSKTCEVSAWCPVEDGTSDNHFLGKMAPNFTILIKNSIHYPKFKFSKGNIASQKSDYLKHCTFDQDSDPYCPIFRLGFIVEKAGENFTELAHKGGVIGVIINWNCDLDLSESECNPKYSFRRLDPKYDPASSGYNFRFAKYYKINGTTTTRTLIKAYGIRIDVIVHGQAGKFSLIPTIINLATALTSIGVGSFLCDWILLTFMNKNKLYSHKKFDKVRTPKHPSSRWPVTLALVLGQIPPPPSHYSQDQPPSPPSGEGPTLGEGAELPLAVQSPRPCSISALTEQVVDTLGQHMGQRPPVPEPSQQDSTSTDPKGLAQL
The experiment in a line: rat P2X2/3 FLIPR calcium (Fluo-4) antagonist assay. Particulars: Rat P2X2/3 FLIPR Mean IC50 (nM), HEK-TREX cells, tetracycline-induced rat P2X3 with constitutive rat P2X2; agonist 500 nM α,β-methylene-ATP.

Assay [2] deals with T2, hP2X3 (human Purinergic P2X receptors subtype 3), clone B (Homo sapiens, UniProt P56373).
T2 sequence (P56373 1-397): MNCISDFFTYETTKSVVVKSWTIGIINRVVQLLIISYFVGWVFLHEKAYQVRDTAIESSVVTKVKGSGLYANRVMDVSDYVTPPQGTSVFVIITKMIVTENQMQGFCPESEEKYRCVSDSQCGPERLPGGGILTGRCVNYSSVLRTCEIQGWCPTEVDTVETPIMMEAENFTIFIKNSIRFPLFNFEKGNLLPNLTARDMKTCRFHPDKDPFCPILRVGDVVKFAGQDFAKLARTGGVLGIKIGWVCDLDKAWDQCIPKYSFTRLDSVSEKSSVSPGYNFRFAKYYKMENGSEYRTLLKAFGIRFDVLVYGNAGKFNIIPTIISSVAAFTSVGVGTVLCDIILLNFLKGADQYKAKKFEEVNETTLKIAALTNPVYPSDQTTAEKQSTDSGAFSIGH
The experiment in a line: hP2X3 FLIPR calcium (Fluo-4) antagonist assay, clone B. The conditions noted are these: Human P2X3 FLIPR Clone B IC50 (nM), RLE cells expressing hP2X3 clone B (NM_002559); agonist 500 nM α,β-methylene-ATP.

Regarding `CC(=O)N1CCN(c2nc3c(c(N4CCCCC4Cc4ccc(F)cc4)n2)CN(C(C)C)C3=O)CC1` (stereo not drawn) [Example 268, 4-(4-acetylpiperazin-1-yl)-2-[2-[(4-fluorophenyl)methyl]-1-piperidyl]-8-propan-2-yl-3,5,8-triazabicyclo[4.3.0]nona-1,3,5-trien-7-one], the IC50 in assay [1] turned out to be 12400 nM; in assay [2], 500 nM.

As to `CCC(C)N1Cc2c(NCc3cnc4ccccc4c3)nc(N3CCN(C(C)=O)CC3)nc2C1=O` (single isomer, unassigned; (+)) [Example 308, (+)-2-(4-acetylpiperazin-1-yl)-4-(3-quinolylmethylamino)-6-sec-butyl-5H-pyrrolo[3,4-d]pyrimidin-7-one], the IC50 in assay [1] came to 10300 nM; in assay [2] it was 20 nM.

In the case of `CC(=O)N1CCN(c2nc3c(c(N4CCC[C@@H]4Cc4ccccc4)n2)CN(C(C)C)C3=O)CC1` [Example 116, 2-(4-acetylpiperazin-1-yl)-4-[(2R)-2-benzylpyrrolidin-1-yl]-6-isopropyl-5,6-dihydro-7H-pyrrolo[3,4-d]pyrimidin-7-one], the IC50 came to 10300 nM in assay [1] and 57 nM in assay [2].

Regarding `CC(C)N1Cc2c(NC(C)(C)Cc3ccc(F)cc3)nc(N3CCN4C(=O)CCC4C3)nc2C1=O` (stereo not drawn) [Example 134, 4-(1-(4-Fluorophenyl)-2-methylpropan-2-ylamino)-6-isopropyl-2-(6-oxohexahydro[1,2-a]pyrazin-2(1H)-yl)-5H-pyrrolo[3,4-d]pyrimidin-7(6H)-one], the IC50 came to 49800 nM in assay [1] and 490 nM in assay [2].

For `CCC(C)N1Cc2c(NCc3cnn(-c4ccccc4)c3)nc(N3CCN(C(C)=O)CC3)nc2C1=O` (single isomer, unassigned; (-)) [Example 307, (−)-4-(4-acetylpiperazin-1-yl)-8-butan-2-yl-2-[(1-phenylpyrazol-4-yl)methylamino]-3,5,8-triazabicyclo[4.3.0]nona-1,3,5-trien-7-one], the figures for the half-inhibitory concentration (IC50) in assay [1] and in assay [2] were 12000 nM and 150 nM, respectively.

As for `CC(=O)N1CCN(c2nc(NCc3cc4ccccc4c(N(C)C)n3)c3c(n2)C(=O)N(C(C)C)C3)CC1` [Example 252, 2-(4-acetylpiperazin-1-yl)-4-((1-(dimethylamino)isoquinolin-3-yl)methylamino)-6-isopropyl-5H-pyrrolo[3,4-d]pyrimidin-7(6H)-one], the IC50 was 2110 nM in assay [1] and 87 nM in assay [2].

`CC(=O)N1CCN(c2nc(N[C@H](C)c3ccc(OC(F)F)cc3)c3c(n2)C(=O)N(C(C)C)C3)CC1` [Example 114, 2-(4-acetylpiperazin-1-yl)-4-({(1R)-1-[4-(difluoromethoxy)phenyl]ethyl}amino)-6-isopropyl-5,6-dihydro-7H-pyrrolo[3,4-d]pyrimidin-7-one]: the IC50 in assay [1] was 3300 nM; in assay [2], 71 nM.

As to `COc1ccc(CC2CCCN2c2nc(N3CCN(C(C)=O)CC3)nc3c2CN(C(C)C)C3=O)cc1` (stereo not drawn) [Example 286, 2-(4-acetylpiperazin-1-yl)-6-isopropyl-4-[2-[(4-methoxyphenyl)methyl]pyrrolidin-1-yl]-5H-pyrrolo[3,4-d]pyrimidin-7-one], the IC50 in assay [1] turned out to be 3430 nM; in assay [2] it was 67 nM.

As to `CC(=O)N(C)C1CCN(c2nc(NCc3cnc4ccccc4c3)c3c(n2)C(=O)N(C(C)C)C3)C1` (stereo not drawn) [Example 208, N-(1-(6-isopropyl-7-oxo-4-(quinolin-3-ylmethylamino)-6,7-dihydro-5H-pyrrolo[3,4-d]pyrimidin-2-yl)pyrrolidin-3-yl)-N-methylacetamide], the IC50 in assay [1] was found to be 17600 nM; in assay [2] it was 680 nM.

In the case of `CC(=O)N1CCN(c2nc(N[C@H](C)c3ccc4ncccc4c3)c3c(n2)C(=O)N(C(C)C)C3)CC1` [Example 243, (R)-2-(4-acetylpiperazin-1-yl)-6-isopropyl-4-(1-(quinolin-6-yl)ethylamino)-5H-pyrrolo[3,4-d]pyrimidin-7(6H)-one], the figures for the IC50 in assay [1] and in assay [2] were 1240 nM and 36 nM, respectively.

As to `CCC(c1ccccc1)C1CCCN1c1nc(N2CCN(C(C)=O)CC2)nc2c1CN(C(C)C)C2=O` (stereo not drawn) [Example 275, 4-(4-acetylpiperazin-1-yl)-2-[2-(1-phenylpropyl)pyrrolidin-1-yl]-8-propan-2-yl-3,5,8-triazabicyclo[4.3.0]nona-2,4,10-trien-7-one], the IC50 in assay [1] came to 10300 nM; in assay [2], 760 nM.

For `CC(=O)N1CCN(c2nc(NC(C)c3cnn(-c4ccccc4)c3)c3c(n2)C(=O)N(C(C)C)C3)CC1` (stereo not drawn) [Example 150, 4-(4-acetylpiperazin-1-yl)-2-[1-(1-phenylpyrazol-4-yl)ethylamino]-8-propan-2-yl-3,5,8-triazabicyclo[4.3.0]nona-1,3,5-trien-7-one], the IC50 was determined as 237 nM in assay [1] and 60 nM in assay [2].

With `CC(C)N1Cc2c(NC3c4cccnc4CCc4c(F)cccc43)nc(N(C)CCN(C)C)nc2C1=O` (stereo not drawn) [Example 121, 2-[[2-(dimethylamino)ethyl](methyl)amino]-4-[(9-fluoro-10,11-dihydro-5H-benzo[4,5]cyclohepta[1,2-b]pyridin-5-yl)amino]-6-isopropyl-5,6-dihydro-7H-pyrrolo[3,4-d]pyrimidin-7-one], the IC50 in assay [1] was determined as 4580 nM; in assay [2], 150 nM.

`CC(=O)N1CCN(c2nc3c(c(N4CCCC4c4cccc(Cl)c4)n2)CN(C(C)C)C3=O)CC1` (stereo not drawn) [Example 132, 2-(4-Acetylpiperazin-1-yl)-4-(2-(3-chlorophenyl)pyrrolidin-1-yl)-6-isopropyl-5H-pyrrolo[3,4-d]pyrimidin-7(6H)-one]: the values for the IC50 in assay [1] and in assay [2] were 13300 nM and 1400 nM, respectively.

As to `CC(=O)N1CCN(c2nc(NCc3nnc(-c4ccccc4)o3)c3c(n2)C(=O)N(C(C)C)C3)CC1` [Example 148, 4-(4-acetylpiperazin-1-yl)-2-[(5-phenyl-1,3,4-oxadiazol-2-yl)methylamino]-8-propan-2-yl-3,5,8-triazabicyclo[4.3.0]nona-1,3,5-trien-7-one], the IC50 in assay [1] is 6750 nM; in assay [2], 160 nM.

On to `CCC(C)N1Cc2c(NCc3cnn(-c4ccccc4)c3)nc(N3CCN(C(C)=O)CC3)nc2C1=O` (single isomer, unassigned; (+)) [Example 306, (+)-4-(4-acetylpiperazin-1-yl)-8-butan-2-yl-2-[(1-phenylpyrazol-4-yl)methylamino]-3,5,8-triazabicyclo[4.3.0]nona-1,3,5-trien-7-one], for which the IC50 in assay [1] was determined as 3970 nM; in assay [2] it was 34 nM.

Consider `CC(=O)N1CCN(c2nc(NCc3cncc4ccccc34)c3c(n2)C(=O)N(C(C)C)C3)CC1` [Example 229, 2-(4-acetylpiperazin-1-yl)-6-isopropyl-4-(isoquinolin-4-ylmethylamino)-5H-pyrrolo[3,4-d]pyrimidin-7(6H)-one], for which the values for the IC50 in assay [1] and in assay [2] were 14600 nM and 120 nM, respectively.

Consider `CC(=O)N1CCN(c2nc3c(c(N4CCCC4c4cnc5ccccc5c4)n2)CN(C(C)C)C3=O)CC1` (stereo not drawn) [Example 274, 4-(4-acetylpiperazin-1-yl)-8-propan-2-yl-2-(2-quinolin-3-ylpyrrolidin-1-yl)-3,5,8-triazabicyclo[4.3.0]nona-1,3,5-trien-7-one], for which the IC50 is 768 nM in assay [1] and 170 nM in assay [2].
